# Measurements taken from patent publication US6770597B2, “Benzohydrazide derivatives as herbicides and desiccant compositions containing them” (Ishihara Sangyo Kaisha, Ltd., priority 2002, dated 2004).
# Tests used:
# Type in all cases: in vivo
# [1] = tested on: common ragweed (Ambrosia artemisiifolia L., AMBEL); test: Greenhouse herbicide screen, pre-emerge application, phytotoxicity rating; details: PRE emergent, 63 g ai/ha, 14 days after application, rating scale 0-100
# Source text: (§1) A standard greenhouse herbicide activity screening system was used to evaluate the herbicidal efficacy and crop safety of these test compounds. Seven broadleaf weed species including redroot pigweed (Amaranthus retrofiexus, AMARE), velvetleaf (Abutilon theophrasti, ABUTH), sicklepod (Cassia obtusifolia, CASOB), ivyleaf morningglory (Ipomoea hederacea, IPOHE), lambsquarters (Chenopodium album, CHEAL), common ragweed (Ambrosia artemisiifolia L., AMBEL), and cocklebur (Xanthium strumarium, XANST) were used as test species. Four grass weed species including green foxtail (Setaria viridis, SETVI), barnyardgrass (Echinochloa crus-galli, ECHCG), johnsongrass (Sorghum halepense, SORHA), and large crabgrass (Digitaria sanguinalis, DIGSA) were also used. In addition, four crop species, field corn (Zea mays L., var. Dekalb 535, CORN), soybean (Glycine max L., var. Pella 86, SOY), upland rice (Oryza sp., var.Cocodrie, RICE) and wheat (Triticum aestivum L.) were included.
# (§2) All plants were grown in 10 cm square plastic pots which were filled with a sandy loam soil mix. For pre-emerge tests, seeds were planted one day prior to application of the test compounds. For post-emerge tests, seeds were planted 8-21 days prior to the test to allow emergence and good foliage development prior to application of the test substances. At the time of the post-emerge application, plants of all species were usually at the 2-3 leaf stage of development.
# (§3) All test compounds were dissolved in acetone and applied to the test units in a volume of 187 l/ha. Test materials were applied at rates ranging from 15 g ai/ha to 1000 g ai/ha using a track sprayer equipped with a TJ8001E even flow flat fan spray nozzle. Plants were arranged on a shelf so that the top of the canopy (post-emerge) or top of the soil surface (pre-emerge) was 40-45 cm below the nozzle. Pressurized air was used to force the test solution through the nozzle as it was mechanically advanced (via electrically driven chain drive) over the top of all test plants/pots. This application simulates a typical commercial field herbicide application.
# (§4) Pre-emergence tests were top watered immediately after treatment to incorporate the test materials, then routinely top-watered for normal growth. Post-emerge test units were always bottom-watered.
# (§5) At 14 days after application of the test materials, phytotoxicity ratings were recorded. A rating scale of 0-100 was used as previously described in Research Methods in Weed Science, 2nd edition, B. Truelove, Ed., Southern Weed Science Society, Auburn University, Auburn, Ala., 1977. Briefly, “0” corresponds to no damage and “100” corresponds to complete death of all plants in the test unit. This scale was used both to determine efficacy against weed species and damage to crop species. Herbicide activity data for various compounds of this invention, which are shown by compound No. in Tables 1-12, are shown in Tables 13 and 14.
# [2] = tested on: green foxtail (Setaria viridis, SETVI); test: as above; details: PRE emergent, 63 g ai/ha, 14 days after application, rating scale 0-100
# Source text: as §1, §2, §3, §4, §5
# [3] = tested on: velvetleaf (Abutilon theophrasti, ABUTH); test: as above; details: PRE emergent, 63 g ai/ha, 14 days after application, rating scale 0-100
# Source text: as §1, §2, §3, §4, §5
# [4] = tested on: sicklepod (Cassia obtusifolia, CASOB); test: as above; details: PRE emergent, 63 g ai/ha, 14 days after application, rating scale 0-100
# Source text: as §1, §2, §3, §4, §5
# [5] = tested on: ivyleaf morningglory (Ipomoea hederacea, IPOHE); test: as above; details: PRE emergent, 63 g ai/ha, 14 days after application, rating scale 0-100
# Source text: as §1, §2, §3, §4, §5
# [6] = tested on: cocklebur (Xanthium strumarium, XANST); test: as above; details: PRE emergent, 63 g ai/ha, 14 days after application, rating scale 0-100
# Source text: as §1, §2, §3, §4, §5
# [7] = tested on: lambsquarters (Chenopodium album, CHEAL); test: as above; details: PRE emergent, 63 g ai/ha, 14 days after application, rating scale 0-100
# Source text: as §1, §2, §3, §4, §5
# [8] = tested on: barnyardgrass (Echinochloa crus-galli, ECHCG); test: as above; details: PRE emergent, 63 g ai/ha, 14 days after application, rating scale 0-100
# Source text: as §1, §2, §3, §4, §5
# [9] = tested on: redroot pigweed (Amaranthus retrofiexus, AMARE); test: as above; details: PRE emergent, 63 g ai/ha, 14 days after application, rating scale 0-100
# Source text: as §1, §2, §3, §4, §5
# [10] = tested on: johnsongrass (Sorghum halepense, SORHA); test: as above; details: PRE emergent, 63 g ai/ha, 14 days after application, rating scale 0-100
# Source text: as §1, §2, §3, §4, §5
# [11] = tested on: large crabgrass (Digitaria sanguinalis, DIGSA); test: as above; details: PRE emergent, 63 g ai/ha, 14 days after application, rating scale 0-100
# Source text: as §1, §2, §3, §4, §5
# [12] = tested on: common ragweed (Ambrosia artemisiifolia L., AMBEL); test: Greenhouse herbicide screen, post-emerge application, phytotoxicity rating; details: POST emergent, 63 g ai/ha, 14 days after application, scale 0-100
# Source text: as §1, §2, §3, §4, §5
# [13] = tested on: green foxtail (Setaria viridis, SETVI); test: as above; details: POST emergent, 63 g ai/ha, 14 days after application, scale 0-100
# Source text: as §1, §2, §3, §4, §5
# [14] = tested on: velvetleaf (Abutilon theophrasti, ABUTH); test: as above; details: POST emergent, 63 g ai/ha, 14 days after application, scale 0-100
# Source text: as §1, §2, §3, §4, §5
# [15] = tested on: sicklepod (Cassia obtusifolia, CASOB); test: as above; details: POST emergent, 63 g ai/ha, 14 days after application, scale 0-100
# Source text: as §1, §2, §3, §4, §5
# [16] = tested on: ivyleaf morningglory (Ipomoea hederacea, IPOHE); test: as above; details: POST emergent, 63 g ai/ha, 14 days after application, scale 0-100
# Source text: as §1, §2, §3, §4, §5
# [17] = tested on: cocklebur (Xanthium strumarium, XANST); test: as above; details: POST emergent, 63 g ai/ha, 14 days after application, scale 0-100
# Source text: as §1, §2, §3, §4, §5
# [18] = tested on: lambsquarters (Chenopodium album, CHEAL); test: as above; details: POST emergent, 63 g ai/ha, 14 days after application, scale 0-100
# Source text: as §1, §2, §3, §4, §5
# [19] = tested on: barnyardgrass (Echinochloa crus-galli, ECHCG); test: as above; details: POST emergent, 63 g ai/ha, 14 days after application, scale 0-100
# Source text: as §1, §2, §3, §4, §5
# [20] = tested on: redroot pigweed (Amaranthus retrofiexus, AMARE); test: as above; details: POST emergent, 63 g ai/ha, 14 days after application, scale 0-100 (0 no damage, 100 complete death)
# Source text: as §1, §2, §3, §4, §5
# [21] = tested on: johnsongrass (Sorghum halepense, SORHA); test: as above; details: POST emergent, 63 g ai/ha, 14 days after application, scale 0-100
# Source text: as §1, §2, §3, §4, §5
# [22] = tested on: large crabgrass (Digitaria sanguinalis, DIGSA); test: as above; details: POST emergent, 63 g ai/ha, 14 days after application, scale 0-100
# Source text: as §1, §2, §3, §4, §5
smiles,measurement,setting,value
"CC(=O)OC(=NN=C(C)C(C)(C)C)c1cc(-n2c(=O)cc(C(F)(F)F)n(C)c2=O)c(F)cc1Cl [Compound 5-2, 2-chloro-5-(3,6-dihydro-3-methyl-2,6-dioxo-4-(trifluoromethyl)-1(2H)-pyrimidinyl)-4-fluoro-N-(1,2,2-trimethylpropylidene)-benzenecarbohydrazonic Acid, Acetyl Ester]",phytotoxicity rating AMBEL,[1],60
same,phytotoxicity rating SETVI,[2],70
same,phytotoxicity rating ABUTH,[3],95
same,phytotoxicity rating CASOB,[4],55
same,phytotoxicity rating IPOHE,[5],95
same,phytotoxicity rating XANST,[6],0
same,phytotoxicity rating CHEAL,[7],100
same,phytotoxicity rating ECHCG,[8],40
same,phytotoxicity rating AMARE,[9],100
same,phytotoxicity rating SORHA,[10],70
same,phytotoxicity rating DIGSA,[11],60
same,phytotoxicity rating AMBEL,[12],90
same,phytotoxicity rating SETVI,[13],50
same,phytotoxicity rating ABUTH,[14],100
same,phytotoxicity rating CASOB,[15],55
same,phytotoxicity rating IPOHE,[16],100
same,phytotoxicity rating XANST,[17],99
same,phytotoxicity rating CHEAL,[18],100
same,phytotoxicity rating ECHCO,[19],95
same,phytotoxicity rating AMARE,[20],95
same,phytotoxicity rating SORHA,[21],55
same,phytotoxicity rating DIGSA,[22],50
